Reference: US7824914B2, “Flavonoids-rich tissues from Neomarica gracilis and methods for culturing the same” (Tatung Company, priority 2006, dated 2010)
Where “and” joins values, the source holds several entries; their conditions need not be identical. Equal values may be shown once.

Experiments:
Type in all cases: cell-based, Neomarica gracilis
[1] = test system: N. gracilis rhizome tissue; assay: Effect of ancymidol on sprout formation and tectorigenin content of cultured rhizome tissue
Protocol: (§1) (4) To determine ancymidol's effect on sprout formation and tectorigenin content, liquid cultured N. gracilis rhizome tissue was inoculated at an inoculum weight of 3% (g F.W./100 ml) to a subculture medium containing MS, 0.5 mg/L BA, 0.1 mg/L 2,4-D and 0.84 mg/L NAA. At day 7 and 14 of the culture, sterilely filtered (0.2 um) ancymidol was added to the culture medium to a final concentration of 0.5, 1.0, or 2.0 mg/L. The growth of the tissue was monitored and the tectorigenin content analyzed.
(§2) The tectorigenin content of the tissue extract was determined by HPLC analysis using a Cosmosil 5 C18-AR-II column (5 μm, 4.6×250 mm), a Lichrospher® 100 RP-18e Guard column (45×4.6 mm, 5 μm, Merck), a Degasser (ERC-3415α) Pump, a Waters 600E Autosampler and Injector (Schambeck SGD GmbH S5200), a Waters TM 486 UV/VIS Detector, and an Integrator (SISC Xunhua Ltd.). The analysis was performed using a methanol:H2O (0.1% Acetic acid) ratio of 55:45, a flowrate of 0.8 ml/min, and a detection wavelength of 265 nm. The tectorigenin peak of the standard appeared at about 13 min appear.
as §1, with “Liquid” for “(4) To determine ancymidol's effect on sprout formation and tectorigenin content, liquid”

[2] = test system: N. gracilis rhizome tissue; assay: Effect of plant growth regulators on N. gracilis rhizome tissue growth and tectorigenin content in flask culture
Protocol: (2) To determine the effect of plant growth regulators (PGR), sprouts from liquid cultured N. gracilis rhizome tissue were removed with a scalpel. The rhizome tissue was inoculated at an inoculum weight of 3% (g F.W./50 ml) in culture medium containing MS basic medium supplemented with PGRs as shown in Table 2. The culture medium was changed every two weeks. The cultured tissue was weighted at each medium change for a total of eight weeks.
N. gracilis rhizome tissue was frozen at −80° C. for 10 hours, dried in a refrigerated vacuum drier (VirTis Freezemobile 12XL) overnight, and grinded. 0.5 g of dried and grinded tissue was suspended in adequate amount of methanol in a 10 ml flask, […] incubated at 60° C. with ultrasonic vibration for 1 hour, and cooled. Methanol was then added to the suspension to a final volume of 10 ml. The suspension was filtered with Whatman No. 1 filter paper. The filtered solution was sealed in brown sample vials and placed in cold room for future experiments.
as §2
N. gracilis rhizome tissue was inoculated at an inoculum weight of 3% (g F.W./[…]) in culture medium containing MS supplemented with various amount of PGRs (Table 2). The culture medium was changed and the fresh weight of the tissues was measured every two weeks. Significant increases in fresh weight were observed during 6-8 weeks of culture (FIG. 3).

[3] = test system: N. gracilis rhizome tissue; assay: Effect of PGRs on growth and tectorigenin content in TIS culture; conditions: for Growth rate: (Final F.W. − Initial F.W.)/Initial F.W.; for F.W. / Tectorigenin: week 4
Protocol: (2) To determine the effect of PLRs on the grows of N. gracilis and the tectorigenin content influence, ten pieces of liquid cultured N. gracilis rhizome tissue were inoculated in culture media containing MS and PGRs described in samples MS0, TI3, TI4, TI5 and TI6 of Table 3. The culture media were replaced on week 2 and the tissues were harvested on week 4 and analyzed for tectorigenin content.
as §2
To determine the effect of PGRs on the tectorigenin content, ten pieces of liquid cultured N. gracilis rhizome tissue (1.5 g each) were inoculated in culture media containing MS and PGRs described in samples MS0, TI3, TI4, TI5 and TI6 of Table 3. The tissues were harvested on week 4 and analyzed for tectorigenin content.

[4] = test system: N. gracilis rhizome tissue; assay: Effect of inoculum weight and PGRs on tissue growth in TIS culture; conditions: 1 mg/L kinetin, inoculum weight 1.5 g, 30 days
Protocol: (1) To determine the effect of the inoculation weight on tissue growth, the TIS culture chamber was divided into four areas. Liquid cultured N. gracilis rhizome tissue was inoculated at 1.5, 3, 6 and 9 g in each area. The culture medium was an MS medium supplemented with PGR as described in samples T12, T17 and T18 of Table 3. The tissues were cultured under conditions detailed in the Plantima® user's manual and immersed for two minutes every three hours. The cultured tissue was weighted and the medium replaced every ten days.
The TIS culture chamber was divided into four areas and liquid cultured N. gracilis rhizome tissue was inoculated at an inoculum weight of 1.5, 3, 6 and 9 g in each area. The culture medium was MS medium supplemented with PGR as described in samples TI2, TI7 and TI8 of Table 3. The cultured tissue was weighted every ten days. […] All other inoculum weights/PGR combinations led to slower growth (FIG. 7).

[5] = test system: N. gracilis rhizome tissue; assay: Tectorigenin content during growth of rhizome tissue in flask culture (weekly for 8 weeks); conditions: 0.1 mg/L NAA, week 1, flask culture
Protocol: (3) To determining the growth curve of N. gracilis rhizome tissue and the tectorigenin content, sprouts from liquid cultured N. gracilis rhizome tissues were removed with a scalpel. The rhizome tissue was inoculated at an inoculum weight (g F.W./50 ml) in culture medium containing the MS basic medium supplemented with 0.1 mg/L NAA or a mixture of 1 mg/L NAA and 1.0 mg/L 2,4-D. The tissues were weighted and analyzed for tectorigenin content every week for eight consecutive weeks.
as §2
Rhizome tissue was inoculated at an inoculum weight of 3% (g F.W./50 ml) in culture medium containing MS basic medium supplemented with 0.1 mg/L NAA or a mixture of 1 mg/L NAA and 1.0 mg/l 2,4-D. The tissues were weighted and analyzed for tectorigenin content every week for eight consecutive weeks.

[6] = IAA 0.1 mg/L, Kinetin 0, 8 weeks flask culture
[7] = IAA 0.5 mg/L, Kinetin 0, 8 weeks flask culture
[8] = IAA 1 mg/L, Kinetin 0, 8 weeks flask culture
[9] = 2,4-D 0.1 mg/l, NAA 0, 8 weeks flask culture
[10] = 2,4-D 1.0 mg/l, NAA 0, 8 weeks flask culture
[11] = NAA 0.1 mg/l, 2,4-D 0, 8 weeks flask culture
[12] = NAA 0.5 mg/l, 2,4-D 0, 8 weeks flask culture
[13] = NAA 1.0 mg/l, 2,4-D 0, 8 weeks flask culture
[14] = NAA 2.0 mg/l, 2,4-D 0, 8 weeks flask culture

COc1ccc(C(O)(c2cncnc2)C2CC2)cc1 (stereo not shown) [Ancymidol, ancymidol]
effect on tectorigenin content (in words) ([1]; 0.5 or 2.0 mg/L added on day 14): reduced tectorigenin content
Tectorigenin ([1]; Ancymidol 0.5 mg/L added day 7, 3 weeks of culture): 28.31 ± 0.11 b mg/kg D.W.
Tectorigenin ([1]; Ancymidol 0.5 mg/L added day 14, 3 weeks of culture): 18.59 ± 0.07 c mg/kg D.W.
Tectorigenin ([1]; Ancymidol 1.0 mg/L added day 7, 3 weeks of culture): 27.74 ± 0.08 b mg/kg D.W.
Tectorigenin ([1]; Ancymidol 1.0 mg/L added day 14, 3 weeks of culture): 30.81 ± 0.35 a mg/kg D.W.
Tectorigenin ([1]; Ancymidol 2.0 mg/L added day 7, 3 weeks of culture): 35.65 ± 0.18 a mg/kg D.W.
Tectorigenin ([1]; Ancymidol 2.0 mg/L added day 14, 3 weeks of culture): 13.36 ± 0.13 d mg/kg D.W.
effect on tectorigenin content (in words) ([1]; added on day 7): did not affect the tectorigenin content
sprout formation (morphology) ([1]; added on day 7): significant reduction of sprout formation

O=C(O)Cc1c[nH]c2ccccc12 [IAA, indole-3-acetic acid]
Dry weight [2, 6]: 1.26 ± 0.22 b g
Tectorigenin [2, 6]: 11.8 ± 8.4 b mg/kg D.W.
Dry weight [2, 7]: 1.02 ± 0.11 bc g
Tectorigenin [2, 7]: 37.6±4.9 mg/kg D.W. and 37.6 ± 4.9 a mg/kg D.W.
Dry weight [2, 8]: 1.70 ± 0.08 a g
Tectorigenin [2, 8]: 29.0 ± 0.29 c mg/kg D.W.

O=C(O)COc1ccc(Cl)cc1Cl [2,4-D, 2,4-dichlorophenoxyacetic acid]
Dry weight [2, 9]: 0.92 ± 0.15 bc g
Tectorigenin [2, 9]: 38.9 ± 1.17 cd mg/kg D.W.
Dry weight [2, 10]: 1.17 ± 0.21 ab g
Tectorigenin [2, 10]: 36.7 ± 0.33 cd mg/kg D.W.

c1coc(CNc2ncnc3[nH]cnc23)c1 [Kinetin, kinetin]
change of tectorigenin content (in words) ([2]; flask culture, 8 weeks): did not result in any increase in the tectorigenin content
Growth rate ([3]; Kinetin 1.0 mg/l): 2.07 ± 0.15
F.W. ([3]; Kinetin 1.0 mg/l): 46.12 ± 2.18 g
Tectorigenin ([3]; Kinetin 1.0 mg/l): 10 ± 0.15 mg/kg D.W.
fresh weight [4]: 6.76 ± 0.33 g
fresh weight as fold of the inoculum weight [4]: 4.5 fold

O=C(O)Cc1cccc2ccccc12 [NAA, α-naphthaleneacetic acid]
Dry weight [2, 11]: 1.39 ± 0.32 a g
Tectorigenin [2, 11]: 55.5±0.67 mg/kg D.W. and 55.5 ± 0.67 ab mg/kg D.W.
Dry weight [2, 12]: 1.03 ± 0.31 bc g
Tectorigenin [2, 12]: 59.9±0.23 mg/kg D.W. and 58.9±0.23 mg/kg D.W. and 58.9 ± 0.23 ab mg/kg D.W.
Dry weight [2, 13]: 1.05 ± 0.20 bc g
Tectorigenin [2, 13]: 49.0 ± 0.81 bc mg/kg D.W.
Dry weight [2, 14]: 0.75 ± 0.02 cd g
Tectorigenin [2, 14]: 9.4 ± 0.22 e mg/kg D.W.
Growth rate ([3]; NAA 0.1 mg/l): 1.71 ± 0.14
F.W. ([3]; NAA 0.1 mg/l): 40.65 ± 2.09 g
Tectorigenin ([3]; NAA 0.1 mg/l): 38 ± 0.57 mg/kg D.W.
Growth rate ([3]; NAA 0.5 mg/l): 1.10 ± 0.21
F.W. ([3]; NAA 0.5 mg/l): 31.47 ± 3.12 g
Tectorigenin ([3]; NAA 0.5 mg/l): 33 ± 0.38 mg/kg D.W.
tectorigenin content (highest, during week 1) [5]: 56±2.82 mg/kg D.W.
